In general, vapor or sublimation pressure refers to the equilibrium pressure above the liquid or solid.

The structures appear in SMILES notation. ± gives the expanded uncertainty stated by the source.

The conditions of the data set: Liquid, Ebulliometric method (Recirculating still).

In the case of `CC(=O)O` [acetic acid], the “vapor or sublimation pressure” value (391.03 K) is given as 101.32 ± 0.46 kPa. In the case of `O` [water], the “vapor or sublimation pressure” value (373.15 K) turned out to be 101.32 ± 0.46 kPa.

Source of the values: the NIST ThermoML archive (doi:10.1021/je400282h).
